Laboratory results: patent US10239851B2 (priority 2014, dated 2019)
Read-outs that look alike come from different tables or passages of the source.

Legend:
[1] = rabbit plasma, 37° C.; for Sampling time/dissociation percent (%) 15 s / Sampling time/dissociation percent (%) 30 s: formula F derivatives
[2] = rat plasma, 37° C.
Protocol: 0.1 ml samples were taken from each of the solutions, added respectively to 1 ml of blood plasma of rabbit (taken from New Zealand white rabbits, treated according to conventional methods, anticoagulated with heparin) or 1 ml of blood plasma of rat (taken from live SD rats, treated according to conventional methods, anticoagulated with heparin), homogeneously mixed, and placed in a thermostatic water bath at 37° C. for incubation with time being recorded. Samples were taken at different time points after the experiment began, and 2 ml of acetonitrile was immediately added. The samples were shaken and centrifuged for 5 min (15,000 rpm), and the supernatant was then taken for HPLC analysis.

[3] = tested on: human ovarian cancer SK-OV-3; conditions: 24 mg/kg (paclitaxel 16 mg/kg) D0-4 IV; for Tumor inhibitory percent (%) D22: P=0.000 compared to the control
Text: Test of the inhibitory activity of the water soluble paclitaxel derivatives on subcutaneously xenografted tumor of human ovarian cancer SK-OV-3 in nude mice: evaluating and comparing the inhibitory activity of the water soluble paclitaxel derivatives of the present invention, paclitaxel and Abraxane® on subcutaneously xenografted tumor of human ovarian cancer SK-OV-3 in nude mice.
Human ovarian cancer SK-OV-3 cells were subcutaneously inoculated to nude mice. After the tumor volume reached 100-150 mm^3, the animals were randomly divided into groups (D0), and administered with the water soluble paclitaxel derivatives of the present invention, paclitaxel, and Abraxane®, respectively once per day for 5 days. The tumor volume was measured 2-3 times per week, the animals were weighed and the data were recorded until day 22 (D22) after grouping.
The tumor volume (V) was calculated according to the equation: V=½×a×b^2, wherein a and b represent the length and the width, respectively.
T/C (%)=(T−T0)/(C−C0)×100, wherein T and C represent the tumor volume at the end of the experiment; and T0 and C0 represent the tumor volume at the beginning of the experiment.

[4] = In vitro dissociation of the water soluble taxane derivatives in blood plasma of rat; type: in vitro ADME, SD rats; conditions: 37° C.
Protocol: The obtained water soluble taxane derivatives were formulated as 0.2 mg/ml aqueous solutions. […] After 2 min, 5 min and 10 min of incubation, 0.2 ml of solutions were respectively taken from each of the samples, and added to acetonitrile (0.4 ml) cooled to −20° C. for precipitation of protein.

[5] = In vitro dissociation of the water soluble taxane derivatives in blood plasma of rabbit; type: in vitro ADME, New Zealand white rabbits; conditions: 37° C.
Protocol: The obtained water soluble taxane derivatives were formulated as 0.2 mg/ml aqueous solutions. […] After 5 min, 20 min and 60 min of incubation, 0.2 ml of solutions were respectively taken from each of the samples, and added to acetonitrile (0.4 ml) cooled to −20° C. for precipitation of protein.

[6] = formula F derivatives, sampling time 5 s

CC(C)c1cccc(C(C)C)c1OC(=O)C(F)CCC(=O)[O-].[K+] [Compound F2, propofol 4-carboxyl-2(S)-fluorovalerate potassium salt]
Sampling time/dissociation percent (%) 15 s ([1]; sampling time 15 s): 73.4%
Sampling time/dissociation percent (%) 30 s ([1]; sampling time 30 s): 94.8%
Sampling time/dissociation percent (%) 5 s [2, 6]: 92.3%

CC(=O)O[C@H]1C(=O)[C@@]2(C)[C@H]([C@H](OC(=O)c3ccccc3)[C@]3(O)C[C@H](OC(=O)[C@H](OC(=O)C(F)CCN(C)C)[C@@H](NC(=O)c4ccccc4)c4ccccc4)C(C)=C1C3(C)C)[C@]1(OC(C)=O)CO[C@@H]1C[C@@H]2O.CS(=O)(=O)O (stereo partly drawn) [Compound C3, 2′-O-[4-(N,N-dimethyl)amino-2(R,S)-fluorobutyryl]paclitaxel methanesulfonate]
Weight change (%) D4 [3]: −6.0%
T/C (%) D22 [3]: −64%
Tumor volume (D22) [3]: 50.6 ± 9.7 mm^3
Tumor inhibitory percent (%) D22 [3]: 165%
dissociation percent ([4]; 2 min): 63.7%
dissociation percent ([4]; 5 min): 96.8%
dissociation percent ([4]; 10 min): 100%
dissociation percent ([5]; 5 min): 76.5%
dissociation percent ([5]; 20 min): 94.6%
dissociation percent ([5]; 60 min): 100%

CC(C)c1cccc(C(C)C)c1OC(=O)[C@@H](CCOP(=O)([O-])[O-])C(F)(F)F.[Li+].[Li+] [Compound G3, {1-[4-(2,6-diisopropylphenoxy)-4-oxo-3-(R)-3-trifluoromethyl-1-butyl]} phosphate monoester dilithium salt]
Sampling time/dissociation percent (%) 15 S ([1]; formula G derivatives, sampling time 15 s): 21.7%
Sampling time/dissociation percent (%) 30 S ([1]; formula G derivatives, sampling time 30 s): 43.6%
Sampling time/dissociation percent (%) 5 S ([2]; formula G derivatives, sampling time 5 s): 38.7%

CC(C)c1cccc(C(C)C)c1OC(=O)C(F)CCCCCC(=O)[O-].CC(C)c1cccc(C(C)C)c1OC(=O)C(F)CCCCCC(=O)[O-].[Ca+2] (racemic) [Compound F4, di[propofol 7-carboxyl-2(R,S)-fluorocaprylate] calcium salt]
Sampling time/dissociation percent (%) 15 s ([1]; sampling time 15 s): 48.3%
Sampling time/dissociation percent (%) 30 s ([1]; sampling time 30 s): 61.7%
Sampling time/dissociation percent (%) 5 s [2, 6]: 63.8%

CCN(C)CCC(F)C(=O)Oc1c(C(C)C)cccc1C(C)C.Cl (racemic) [Compound E4, propofol 4-(N-methyl-N-ethyl)amino-2(R,S)-2-fluorobutyrate hydrochloride]
dissociation percent ([1]; 15 s): 58.3%
dissociation percent ([1]; 30 s): 70.4%
dissociation percent ([2]; 5 s): 70.2%

CC(C)NCC(CF)C(=O)Oc1c(C(C)C)cccc1C(C)C.CS(=O)(=O)O (racemic) [Compound E6, propofol 3-(N-isopropyl)amino-2(R,S)-2-monofluoromethylpropionate methanesulfonate]
dissociation percent ([1]; 15 s): 27.1%
dissociation percent ([1]; 30 s): 44.3%
dissociation percent ([2]; 5 s): 24.2%
dissociation percent ([2]; 15 s): 40.1%

CC(C)c1cccc(C(C)C)c1OC(=O)C(CF)CCCCCCC(=O)[O-].CC(C)c1cccc(C(C)C)c1OC(=O)C(CF)CCCCCCC(=O)[O-].CC(C)c1cccc(C(C)C)c1OC(=O)C(CF)CCCCCCC(=O)[O-].[Al+3] (racemic) [Compound F6, tri[propofol 8-carboxyl-2(R,S)-monofluoromethylpelargonate] aluminum salt]
Sampling time/dissociation percent (%) 15 s ([1]; sampling time 15 s): 37.1%
Sampling time/dissociation percent (%) 30 s ([1]; sampling time 30 s): 58.3%
Sampling time/dissociation percent (%) 5 s [2, 6]: 34.2%
Sampling time/dissociation percent (%) 15 s ([2]; formula F derivatives): 55.7%

CC(C)c1cccc(C(C)C)c1OC(=O)C(F)C(=O)[O-].[Na+] [Compound F8, propofol 2-carboxyl-2(S)-fluoropropionate sodium salt]
Sampling time/dissociation percent (%) 15 s ([1]; sampling time 15 s): 41.2%
Sampling time/dissociation percent (%) 30 s ([1]; sampling time 30 s): 70.4%
Sampling time/dissociation percent (%) 5 s [2, 6]: 55.5%
Sampling time/dissociation percent (%) 15 s ([2]; formula F derivatives): 69.3%
Sampling time/dissociation percent (%) 30 s ([2]; formula F derivatives, sampling time 30 s): 83.3%

CC(C)c1cccc(C(C)C)c1OC(=O)C(F)CCCC(=O)[O-].CC(C)c1cccc(C(C)C)c1OC(=O)C(F)CCCC(=O)[O-].[Zn+2] [Compound F5, di[propofol 5-carboxyl-2(S)-fluorohexanoate] zinc salt]
Sampling time/dissociation percent (%) 15 s ([1]; sampling time 15 s): 34.9%
Sampling time/dissociation percent (%) 30 s ([1]; sampling time 30 s): 58.8%
Sampling time/dissociation percent (%) 5 s [2, 6]: 63.2%
Sampling time/dissociation percent (%) 15 s ([2]; formula F derivatives): 80.3%

CC(C)c1cccc(C(C)C)c1OC(=O)C(F)CCN(C)C.Cl (racemic) [Compound E1, Propofol 4-(N,N-dimethyl)amino-2(R,S)-fluorobutyrate Hydrochloride]
dissociation percent ([1]; 15 s): 67.5%
dissociation percent ([1]; 30 s): 85.5%
dissociation percent ([2]; 5 s): 75.1%
dissociation percent ([2]; 15 s): 83.2%
dissociation percent ([2]; 30 s): 96.7%

CC(=O)O[C@H]1C(=O)[C@@]2(C)[C@H]([C@H](OC(=O)c3ccccc3)[C@]3(O)C[C@H](OC(=O)[C@H](OC(=O)[C@H](F)CCN(C)C)[C@@H](NC(=O)c4ccccc4)c4ccccc4)C(C)=C1C3(C)C)[C@]1(OC(C)=O)CO[C@@H]1C[C@@H]2O.CS(=O)(=O)O [Compound C1, 2′-O-[4-(N,N-dimethyl)amino-2(R)-fluorobutyryl]paclitaxel methanesulfonate]
Tumor volume (D0) ([3]; D0, at grouping): 133.6 ± 9.5 mm^3
Weight change (%) D4 [3]: −5.9%
T/C (%) D22 [3]: −63%
Tumor inhibitory percent (%) D22 [3]: 163%
dissociation percent ([4]; 2 min): 64.3%
dissociation percent ([4]; 5 min): 97.0%
dissociation percent ([4]; 10 min): 100%
dissociation percent ([5]; 5 min): 77.2%
dissociation percent ([5]; 20 min): 98.4%
dissociation percent ([5]; 60 min): 100%

CC(C)c1cccc(C(C)C)c1OC(=O)C(CCC(=O)[O-])C(F)(F)F.[Li+] [Compound F3, propofol 4-carboxyl-2(R)-2-trifluoromethyl valerate lithium salt]
Sampling time/dissociation percent (%) 15 s ([1]; sampling time 15 s): 28.4%
Sampling time/dissociation percent (%) 30 s ([1]; sampling time 30 s): 47.9%
Sampling time/dissociation percent (%) 5 s [2, 6]: 47.4%

CC(=O)O[C@H]1C(=O)[C@@]2(C)[C@H]([C@H](OC(=O)c3ccccc3)[C@]3(O)C[C@H](OC(=O)[C@H](OC(=O)[C@@H](F)CCN(C)C)[C@@H](NC(=O)c4ccccc4)c4ccccc4)C(C)=C1C3(C)C)[C@]1(OC(C)=O)CO[C@@H]1C[C@@H]2O.CS(=O)(=O)O [Compound C2, 2′-O-[4-(N,N-dimethyl)amino-2(S)-fluorobutyryl]paclitaxel methanesulfonate]
Weight change (%) D4 [3]: −5.8%
T/C (%) D22 [3]: −61%
Tumor volume (D22) [3]: 51.2 ± 11.2 mm^3
Tumor inhibitory percent (%) D22 [3]: 158%
dissociation percent ([4]; 2 min): 62.8%
dissociation percent ([4]; 5 min): 96.5%
dissociation percent ([4]; 10 min): 100%
dissociation percent ([5]; 5 min): 69.7%
dissociation percent ([5]; 20 min): 98.1%
dissociation percent ([5]; 60 min): 100%
